The results in this text go back to patent publication US6638943B2 (The University of Tennessee Research Foundation, priority 2001, dated 2003).

One test deals with T1, human α2c-AR (Homo sapiens, UniProt P18825).
T1 construct: expressed in transfected cells
T1 sequence (P18825 1-462): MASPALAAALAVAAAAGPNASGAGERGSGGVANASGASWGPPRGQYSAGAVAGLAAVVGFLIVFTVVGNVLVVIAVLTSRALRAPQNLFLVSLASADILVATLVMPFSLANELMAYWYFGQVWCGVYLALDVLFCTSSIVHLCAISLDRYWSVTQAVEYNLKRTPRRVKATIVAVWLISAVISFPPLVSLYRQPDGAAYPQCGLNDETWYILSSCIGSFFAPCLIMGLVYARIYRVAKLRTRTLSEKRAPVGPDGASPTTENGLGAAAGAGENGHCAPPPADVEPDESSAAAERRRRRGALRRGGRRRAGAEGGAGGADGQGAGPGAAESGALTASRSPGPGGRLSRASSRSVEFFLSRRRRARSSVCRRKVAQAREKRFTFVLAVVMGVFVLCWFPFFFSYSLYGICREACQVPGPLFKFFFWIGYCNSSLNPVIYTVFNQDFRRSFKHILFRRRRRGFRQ
The experiment in a line: [3H]Rauwolscine equilibrium competition binding, human α2c-AR expressed in CHO cells.

A further test deals with T2, human α2a-AR (Homo sapiens, UniProt P08913).
T2 construct: expressed in transfected cells
T2 sequence (P08913 1-465): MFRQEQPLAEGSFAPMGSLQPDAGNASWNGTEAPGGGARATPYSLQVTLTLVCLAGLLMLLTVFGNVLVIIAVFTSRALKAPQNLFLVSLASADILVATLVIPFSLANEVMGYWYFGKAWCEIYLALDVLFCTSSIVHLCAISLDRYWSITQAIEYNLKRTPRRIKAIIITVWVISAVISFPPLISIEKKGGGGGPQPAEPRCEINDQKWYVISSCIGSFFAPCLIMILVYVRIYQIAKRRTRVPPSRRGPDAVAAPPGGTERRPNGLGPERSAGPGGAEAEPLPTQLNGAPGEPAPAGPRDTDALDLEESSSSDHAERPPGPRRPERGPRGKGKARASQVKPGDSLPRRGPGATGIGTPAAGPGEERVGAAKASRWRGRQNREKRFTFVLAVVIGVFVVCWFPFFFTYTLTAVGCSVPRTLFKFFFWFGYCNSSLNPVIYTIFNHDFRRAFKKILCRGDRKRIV
Kind of test: [3H]Rauwolscine equilibrium competition binding, human α2a-AR expressed in CHO cells. As to conditions: for Ki: human α2a-AR in CHO cells; for α2a/α2b Selectivity = Ki(α2b)/Ki(α2a): Table 1, ratio of Ki values.

A further test deals with T3, human α2b-AR (Homo sapiens, UniProt P18089).
T3 construct: expressed in transfected cells
T3 sequence (P18089 1-450): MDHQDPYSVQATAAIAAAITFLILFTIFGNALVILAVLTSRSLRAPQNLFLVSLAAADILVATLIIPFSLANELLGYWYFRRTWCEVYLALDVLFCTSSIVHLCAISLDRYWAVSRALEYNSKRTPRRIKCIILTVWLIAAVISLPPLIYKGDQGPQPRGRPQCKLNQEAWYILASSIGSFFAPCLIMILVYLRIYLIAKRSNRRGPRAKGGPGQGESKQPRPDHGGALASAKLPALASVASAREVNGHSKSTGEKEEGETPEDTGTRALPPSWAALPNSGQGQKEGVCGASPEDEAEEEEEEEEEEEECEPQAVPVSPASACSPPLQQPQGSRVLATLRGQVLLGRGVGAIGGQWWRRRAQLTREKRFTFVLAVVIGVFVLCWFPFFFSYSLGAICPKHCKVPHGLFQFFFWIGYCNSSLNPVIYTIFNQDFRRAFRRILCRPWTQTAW
The experiment in a line: [3H]Rauwolscine equilibrium competition binding, human α2b-AR expressed in CHO cells.

The subject of test [1] is cremaster muscle arterioles (A3-A4 resistance vessels). The experiment in a line: Intravital microscopy of mouse cremaster muscle arterioles. Type of test: in vivo, male C57-BL mice. As to conditions: 37° C., systemic administration via femoral vein, n=6. The method, then: Male C57-BL mice age 7-8 weeks and weighing approximately 20 g were used for the study. Prior to surgery animals were anesthetized with an i.m. injection of […] of Ketaset (87 mg ketamine/mL+13 mg xylazine/mL). Body temperature was maintained at ˜37° C. by convective heating. The animal was supinated and a midline incision was made in the ventro-cervical region and the underlying tissues bisected laterally to expose the trachea. A tracheotomy was performed and the animal intubated directly with PE50 tubing to facilitate ventilation, and the wound closed. The left rear limb was incised to expose the femoral neurovascular bundle, and the femoral vein isolated and catheterized with PE10 tubing attached to a syringe of normal saline. […]. […]
All experiments were carried out using an industrial grade microscope (Nikon MM-11) with two light sources, bright field (Opti-Quip 75 W xenon) and fluorescent (Nikon 150 W mercury). […] Experiments are viewed on a video monitor and recorded on digital tapes for off-line processing. The video images are analyzed off-line using the MetaMorph software (Universal Imaging Co.) on a Dell Optiplex GX-1. […]
The prepared animal was placed on the stage of the microscope on either the surgery board with the translumination window or on a stereotaxic frame. […] The blood pressure was monitored with a Kent Scientific XBP-1000 unit.

The mark [2] stands for this setting: Table 2, mean ± SEM of n = 4-6, read-out: pKi α2a-AR (converted).
[3] abbreviates: [3H]rauwolscine 2.54 nM, mean ± SEM of four to nine experiments, read-out: Ki = SEM (nM) α2a-AR.
[4] abbreviates: Table 2, mean ± SEM of n = 4-6, read-out: pKi α2b-AR (converted).
[5] abbreviates: [3H]rauwolscine 2.54 nM, mean ± SEM of four to nine experiments, read-out: Ki = SEM (nM) α2b-AR.

Where two headings read alike, the source gives them in different places.

Consider `O=C(NCCNC(=O)[C@@H]1[C@H]2C[C@H]3c4[nH]c5ccccc5c4CCN3C[C@@H]2CC[C@@H]1O)[C@@H]1[C@H]2C[C@H]3c4[nH]c5ccccc5c4CCN3C[C@@H]2CC[C@@H]1O` [Compound 3a], for which the Ki at human α2c-AR was 3.55 nM; on human α2a-AR (setting [2]), 93.3 nM; at human α2a-AR (setting [3]), 26.4 ± 7.3 nM; on human α2b-AR (setting [4]) it was 3160 nM; on human α2b-AR (setting [5]) it was 1510 ± 262 nM.
Regarding `O=C(NCCCCNC(=O)[C@@H]1[C@H]2C[C@H]3c4[nH]c5ccccc5c4CCN3C[C@@H]2CC[C@@H]1O)[C@@H]1[C@H]2C[C@H]3c4[nH]c5ccccc5c4CCN3C[C@@H]2CC[C@@H]1O` [Compound 3c], the Ki at human α2c-AR was 8.32 nM; on human α2a-AR (setting [2]), 53.7 nM; on human α2a-AR (setting [3]), 15.3 ± 6.2 nM; at human α2b-AR (setting [4]), 398 nM; on human α2b-AR (setting [5]) it was 189 ± 38.1 nM.
As to `O=C(NCCCCCNC(=O)[C@@H]1[C@H]2C[C@H]3c4[nH]c5ccccc5c4CCN3C[C@@H]2CC[C@@H]1O)[C@@H]1[C@H]2C[C@H]3c4[nH]c5ccccc5c4CCN3C[C@@H]2CC[C@@H]1O` [Compound 3d], the Ki on human α2c-AR is 10.7 nM; on human α2a-AR (setting [2]), 6.17 nM; on human α2a-AR (setting [3]) it was 1.73 ± 0.26 nM.
Take `O=C(NCCCCCCNC(=O)[C@@H]1[C@H]2C[C@H]3c4[nH]c5ccccc5c4CCN3C[C@@H]2CC[C@@H]1O)[C@@H]1[C@H]2C[C@H]3c4[nH]c5ccccc5c4CCN3C[C@@H]2CC[C@@H]1O` [Compound 3e]: the Ki is 6.92 nM on human α2c-AR; 4.47 nM at human α2a-AR (setting [2]); 1.35 ± 0.27 nM at human α2a-AR (setting [3]); 288 nM on human α2b-AR (setting [4]); 166 ± 56.7 nM at human α2b-AR (setting [5]).
For `O=C(NCCCCCCCNC(=O)[C@@H]1[C@H]2C[C@H]3c4[nH]c5ccccc5c4CCN3C[C@@H]2CC[C@@H]1O)[C@@H]1[C@H]2C[C@H]3c4[nH]c5ccccc5c4CCN3C[C@@H]2CC[C@@H]1O` [Compound 3f], the Ki was 3.39 nM on human α2c-AR, 3.09 nM on human α2a-AR (setting [2]) and 0.87 ± 0.18 nM on human α2a-AR (setting [3]).
On to `O=C(NCCCCCCCCNC(=O)[C@@H]1[C@H]2C[C@H]3c4[nH]c5ccccc5c4CCN3C[C@@H]2CC[C@@H]1O)[C@@H]1[C@H]2C[C@H]3c4[nH]c5ccccc5c4CCN3C[C@@H]2CC[C@@H]1O` [Compound 3g], for which, on human α2a-AR, the “α2a/α2b Selectivity = Ki(α2b)/Ki(α2a)” value was 60.5. In addition, the figures for the Ki on human α2a-AR (setting [3]) and at human α2b-AR (setting [5]) were 0.76 ± 0.12 nM and 46 ± 7.6 nM, respectively.
The like results for `O=C(NCCCCCCCCCCNC(=O)[C@@H]1[C@H]2C[C@H]3c4[nH]c5ccccc5c4CCN3C[C@@H]2CC[C@@H]1O)[C@@H]1[C@H]2C[C@H]3c4[nH]c5ccccc5c4CCN3C[C@@H]2CC[C@@H]1O` [Compound 3i] were, in that order, 47.7, 0.39 ± 0.08 nM and 18.6 ± 1.6 nM.
In the case of `COC(=O)[C@@H]1[C@H]2C[C@H]3c4[nH]c5ccccc5c4CCN3C[C@@H]2CC[C@@H]1O` [Yohimbine, reference compound], the “increase in vessel diameter” value in test [1] amounted to 22.14±1.08%. Further, the “binding affinity for α2c-AR greater than on the α1-AR subtypes” value on human α2c-AR (from Table 3) was “at least 4400 fold”.
